Test results: US20120165319A1, “INHIBITORS OF INTERLEUKIN-1 BETA CONVERTING ENZYME” (VERTEX PHARMACEUTICALS INCORPORATED, priority 1995, published 2012)
Read-outs that look alike come from different tables or passages of the source.

Experiments:
[1] = test system: IL-1β, human whole blood; test: Whole blood assay for IL-1β production; format: cell-based; conditions: Table 17, read-out: Whole human blood IC50
In short: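 IL-1β was quantified by ELISA in plasma diluted 1:200. The plasma came from EDTA-anticoagulated human whole blood incubated at 30 °C for 16-18 h with LPS (final 5.0 ng/ml) plus a saline serial dilution of compound. Controls were no-LPS, no-inhibitor and highest-vehicle.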

[2] = test system: IL-1β production, LPS-challenged mice; test: In vivo acute assay for efficacy as anti-inflammatory agent: LPS-induced IL-1β production in mice; design: species or system mouse; conditions: LPS challenged mice, compound PO, 50 mg/kg; for inhibition at 50 mg/kg: Mus musculus, po, read-out: percent inhibition of IL-1β production
Procedure: In Vivo Acute Assay for Efficacy as Anti-Inflammatory Agent
LPS-Induced IL-1β Production.
Efficacy of 214e and 217e was evaluated in CD1 mice (n=6 per condition) challenged with LPS (20 mg/kg IP). […] Blood was collected seven hours after LPS challenge. Serum IL-1β levels were measure by ELISA. […] Similar results were obtained in a second experiment. […] However, a clear dose response was not apparent.
Compounds 214e and 217e (50 mg/kg) were also administered by oral gavage to assess absorption.
The efficacy of analogs of 214e were also evaluated in LPS challenged mice after IP administration (FIG. 9) and PO administration (FIG. 10).
[…] The protocol is described in Example 7.

[3] = administered 0 h relative to time of LPS challenge
[4] = administered −2 h relative to time of LPS challenge
[5] = 0 h, administered 0 h relative to time of LPS challenge
[6] = 2 h, administered −2 h relative to time of LPS challenge

SMILES | IC50 [1] [nM] | percent inhibition of IL-1β production [2, 3] [%] | percent inhibition of IL-1β production [2, 4] | IC50 ([1]; Homo sapiens) [nM] | inhibition at 50 mg/kg [2, 5] [%] | inhibition at 50 mg/kg [2, 6] [%]
CN(C)c1ccc(C(=O)N[C@H]2CCC(=O)N3CCC[C@@H](C(=O)N[C@H]4CC(=O)OC4OCc4ccccc4)N3C2=O)cc1 (mixture of isomers) [Compound 213f, [1S,9S(2RS,3S)]9-[(4-Dimethylaminobenzoyl)amino]-6,10-dioxo-1,2,3,4,7,8,9,10-octahydro-N-(2-Benzyloxy-5-oxotetrahydrofuran-3-yl)-6H-pyridazino[1,2-a][1,2]diazepine-1-carboxamide] | 3000 | 8 | (−4) % | – | – | –
Nc1ccc(C(=O)N[C@H]2CCC(=O)N3CCC[C@@H](C(=O)N[C@H]4CC(=O)OC4OCc4ccccc4)N3C2=O)cc1Cl (mixture of isomers) [Compound 213h, [1S,9S (2RS,3S)]9-[(3-Chloro-4-aminobenzoyl)amino]-6,10-dioxo-1,2,3,4,7,8,9,10-octahydro-N-(2-Benzyloxy-5-oxotetrahydrofuran-3-yl)-6H-pyridazino[1,2-a][1,2]diazepine-1-carboxamide] | 1500 | 53 | 9% | – | – | –
COc1ccc(C(=O)N[C@H]2CCC(=O)N3CCC[C@@H](C(=O)N[C@H]4CC(=O)OC4OCc4ccccc4)N3C2=O)cc1 (mixture of isomers) [Compound 213i, [1S,9S(2RS,3S)]9-[(4-Methoxybenzoyl)amino]-6,10-dioxo-1,2,3,4,7,8,9,10-octahydro-N-(2-Benzyloxy-5-oxotetrahydrofuran-3-yl)-6H-pyridazino[1,2-a][1,2]diazepine-1-carboxamide] | 1100 | 62 | (−11) % | – | – | –
O=C1C[C@H](NC(=O)[C@@H]2CCCN3C(=O)CC[C@H](NC(=O)c4ccc(O)cc4)C(=O)N23)C(OCc2ccccc2)O1 (mixture of isomers) [Compound 213p, [1S,9S (2RS,3S)]N-(2-Benzyloxy-5-oxotetrahydrofuran-3-yl)-6,10-dioxo-9-(4-hydroxybenzoyl)amino-1,2,3,4,7,8,9,10-octahydro-6H-pyridazino[1,2-a][1,2]diazepine-1-carboxamide] | < 300 | 29 | 21% | – | – | –
O=C1C[C@H](NC(=O)[C@@H]2CCCN3C(=O)CC[C@H](NC(=O)c4cc5ccccc5[nH]4)C(=O)N23)C(OCc2ccccc2)O1 (mixture of isomers) [Compound 213q, [1S,9S(2RS,3S)]N-(2-Benzyloxy-5-oxotetrahydrofuran-3-yl)-6,10-dioxo-9-(indol-2-oylamino)-1,2,3,4,7,8,9,10-octahydro-6H-pyridazino[1,2-a][1,2]diazepine-1-carboxamide] | < 300 | 91 | 17% | – | – | –
Cc1ccccc1C(=O)N[C@H]1CCC(=O)N2CCC[C@@H](C(=O)N[C@H]3CC(=O)OC3OCc3ccccc3)N2C1=O (mixture of isomers) [Compound 213r, [1S,9S(2RS,3S)]N-(2-Benzyloxy-5-oxotetrahydrofuran-3-yl)-6,10-dioxo-1,2,3,4,7,8,9,10-octahydro-9-(2-toluoylamino)-6H-pyridazino[1,2-a][1,2]diazepine-1-carboxamide] | < 300 | 37 | 59% | – | – | –
O=C1C[C@H](NC(=O)[C@@H]2CCCN3C(=O)CC[C@H](NC(=O)c4nccc5ccccc45)C(=O)N23)C(OCc2ccccc2)O1 (mixture of isomers) [Compound 213y, [1S,9S(2RS,3S)]N-(2-Benzyloxy-5-oxotetrahydrofuran-3-yl)-6,10-dioxo-9-(isoquinolin-1-oylamino)-1,2,3,4,7,8,9,10-octahydro-6-H-pyridazino[1,2-a][1,2]diazepine-1-carboxamide] | 930 | 50 | 29% | – | – | –
CC(=O)OC1OC(=O)CC1NC(=O)[C@@H]1CCCN2C(=O)CC[C@H](NC(=O)c3ccccc3)C(=O)N12 (mixture of isomers) [Compound 2100h, [1S,9S(2RS,3RS)]9-Benzoylamino-6,10-dioxo-1,2,3,4,7,8,9,10-octahydro-N-(2-acetoxy-5-oxotetrahydrofuran-3-yl)-6H-pyridazino[1,2-a][1,2]diazepine-1-carboxamide] | – | – | – | 2000 | 32 | 34
O=C1C[C@H](NC(=O)[C@@H]2CCCN3C(=O)CC[C@H](NC(=O)c4cc(Cl)c(O)c(Cl)c4)C(=O)N23)C(OCc2ccccc2)O1 (stereo partly drawn) [Compound 213k, [1S,9S(2RS,3S)]9-[(3,5-Dichloro-4-hydroxybenzoyl)amino]-6,10-dioxo-1,2,3,4,7,8,9,10-octahydro-N-(2-Benzyloxy-5-oxotetrahydrofuran-3-yl)-6H-pyridazino[1,2-a][1,2]diazepine-1-carboxamide] | – | – | – | 2000 | 68 | 0
CC(=O)Nc1ccc(C(=O)N[C@H]2CCC(=O)N3CCC[C@@H](C(=O)N[C@H]4CC(=O)OC4OCc4ccccc4)N3C2=O)cc1Cl (stereo partly drawn) [Compound 213l, [1S,9S(2RS,3S)]9-[(3-Chloro-4-acetamidobenzoyl)amino]-6,10-dioxo-1,2,3,4,7,8,9,10-octahydro-N-(2-Benzyloxy-5-oxotetrahydrofuran-3-yl)-6H -pyridazino[1,2-a][1,2]diazepine-1-carboxamide] | – | – | – | 2000 | 80 | -18
COc1c(Cl)cc(C(=O)N[C@H]2CCC(=O)N3CCC[C@@H](C(=O)N[C@H]4CC(=O)OC4OCc4ccccc4)N3C2=O)cc1Cl (stereo partly drawn) [Compound 213m, [1S,9S(2RS,3S)]9-[(3,5-Dichloro-4-methoxybenzoyl)amino]-6,10-dioxo-1,2,3,4,7,8,9,10-octahydro-N-(2-Benzyloxy-5-oxotetrahydrofuran-3-yl)-6H-pyridazino[1,2-a][1,2]diazepine-1-carboxamide] | – | – | – | 2500 | 42 | 26
O=C1C[C@H](NC(=O)[C@@H]2CCCN3C(=O)CCN(NC(=O)c4ccc5c(c4)OCO5)C(=O)N23)C(OCc2ccccc2)O1 (stereo partly drawn) [Compound 264l, [4S(2RS,3S)]N-(2-Benzyloxy-5-oxotetrahydrofuran-3-yl)-6,10-dioxo-7-(3,4-methylenedioxybenzoylamino)-1,2,3,4,7,8,9,10-octahydro-6H-pyridazino[1,2-a][1,2,4]triazepine-4-carboxamide] | – | – | – | 3000 | 23 | 0
CCOC1OC(=O)C[C@@H]1NC(=O)[C@@H]1CCCN2C(=O)CCN(NC(=O)c3ccc4c(c3)OCO4)C(=O)N12 (stereo partly drawn) [Compound 528, [4S(2RS,3S)]6,10-Dioxo-N-(2-ethoxy-5-oxotetrahydrofuran-3-yl)-7-(3,4-methylenedioxybenzoylamino)-1,2,3,4,7,8,9,10-octahydro-6H-pyridazino[1,2-a][1,2,4]triazepine-4-carboxamide] | – | – | – | 2200 | 67 | 25
O=C1C[C@H](NC(=O)[C@@H]2CCCN3C(=O)CC[C@H](NC(=O)c4ccccc4)C(=O)N23)[C@H](OC2Cc3ccccc3C2)O1 [Compound 2100m, [1S,9S (2R,3S)]9-Benzamido-6,10-dioxo-N-[2-(2-indanyloxy)-5-oxo-tetrahydrofuran-3-yl]-1,2,3,4,7,8,9,10-octahydro-6H-pyridazino[1,2-a][1,2]diazepine-1-carboxamide] | – | – | – | – | 42 | 40
